{"source": "ChEMBL document CHEMBL1150800", "about": "“Multiple-dose escalation study of the safety, pharmacokinetics, and biologic activity of oral AMD070, a selective CXCR4 receptor inhibitor, in human subjects” (Antimicrob Agents Chemother, 2007)", "tested_on": "Human immunodeficiency virus 1", "experiment": "Antiviral activity against HIV1 NL4.3 in human MT4 cells", "assay_type": "functional, organism-based", "details": "Human immunodeficiency virus 1, MT4", "data": [{"smiles": "c1cc(CN2CCCNCCNCCCNCC2)ccc1CN1CCCNCCNCCCNCC1", "note": "[PLERIXAFOR]", "values": [{"measurement": "IC50", "value": 1.5, "unit": "ng/mL"}]}]}
